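Where inhibition never reached the appropriate level, the endpoint shown equals the highest concentration tested. Otherwise, values were interpolated linearly from a five-concentration, 48-hour dose response in 96-well plates. The concentration for 50% growth inhibition is given as GI50.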 Activity calls are given as the source filed them. Rule as the data show it: active = GI50 up to about 1.1 µM and inactive = higher. Where a SMILES comes first, the peptide text is derived from it. The star is where a group is joined. Boc = CC(C)(C)OC(=O)*; OBn = c1ccc(CO*)cc1
Tests used:
Assay in all cases: NCI tumour cell line growth inhibition, 48 h
[1] = tested on: KM-20L2
[2] = tested on: 786-0
[3] = tested on: KM12
[4] = tested on: OVCAR-5
[5] = tested on: LOX IMVI
[6] = tested on: HL-60
[7] = tested on: TK-10
[8] = tested on: OVCAR-3
[9] = tested on: SNB-75
[10] = tested on: SNB-19
[11] = tested on: SF-268
[12] = tested on: UACC-257
[13] = tested on: SF-539
[14] = tested on: NCI-H23
[15] = tested on: OVCAR-8
[16] = tested on: M14
[17] = tested on: MDA-N
[18] = tested on: UACC-62
[19] = tested on: T47D
[20] = tested on: BT-549

Measured: GI50

Cc1ccc(-n2c(=S)[nH]c3ccc(Br)cc3c2=O)cc1
inactive: [1] > 100 µM | [2] > 100 µM | [3] > 100 µM | [4] > 100 µM | [5] > 100 µM | [6] > 100 µM | [7] > 100 µM | [8] > 100 µM | [9] > 100 µM | [10] > 100 µM | [11] > 100 µM | [12] > 100 µM | [13] > 100 µM | [14] > 100 µM | [15] > 100 µM

COC(=O)c1ccccc1/C=C1\Cc2c(C)c3c(c(C)c2C1=O)CCC3
inactive: [2] 46.6 µM | [3] > 100 µM | [4] > 100 µM | [5] > 100 µM | [16] > 100 µM | [6] > 100 µM | [7] > 100 µM | [8] > 100 µM | [17] > 100 µM | [9] 63.7 µM | [18] > 100 µM | [19] > 100 µM | [10] > 100 µM | [20] > 100 µM | [11] 64.1 µM | [12] > 100 µM | [13] 88.9 µM | [14] > 100 µM | [15] > 100 µM

CC(C)CC(NC(=O)C(Cc1ccccc1)NC(=O)C(Cc1ccccc1)NC(=O)OC(C)(C)C)C(=O)OCc1ccccc1 (stereo not drawn) (Boc-Phe-Phe-Leu-OBn; configuration not given here)
inactive: [2] > 100 µM | [3] > 100 µM | [4] > 100 µM | [5] > 100 µM | [16] > 100 µM | [6] > 100 µM | [7] > 100 µM | [8] > 100 µM | [17] > 100 µM | [9] > 100 µM | [18] > 100 µM | [19] > 100 µM | [10] > 100 µM | [20] > 100 µM | [11] > 100 µM | [12] > 100 µM | [13] > 100 µM | [14] > 100 µM | [15] > 100 µM

CCCCCCCCOCC(CO)OCCCCCCCC (stereo not drawn)
inactive: [1] > 10 µM | [2] 19.6 µM | [4] 17.9 µM | [5] 17.6 µM | [16] 26.1 µM | [6] 19 µM | [7] 19.2 µM | [8] 19.9 µM | [18] 20.1 µM | [10] 23.7 µM | [11] 15 µM | [12] 21.3 µM | [14] 18.7 µM | [15] 19.3 µM

CC(=O)O[C@]12CCC[C@H]1C1(O)C(O)CCC[C@H]12 (stereo partly drawn)
inactive: [1] > 100 µM | [2] > 100 µM | [3] > 100 µM | [5] > 100 µM | [16] > 100 µM | [6] > 100 µM | [7] > 100 µM | [9] > 100 µM | [18] > 100 µM | [10] > 100 µM | [11] > 100 µM | [12] > 100 µM | [14] > 100 µM | [15] > 100 µM

Nc1cccc(Nc2nc3ccccc3nc2NS(=O)(=O)c2ccccc2)c1
inactive: [2] 29 µM | [3] 18.8 µM | [4] 30.3 µM | [5] 22.7 µM | [16] 26.2 µM | [6] 20.7 µM | [7] 42 µM | [8] 17.7 µM | [17] 33.4 µM | [9] 36.2 µM | [18] 20.7 µM | [19] 24.7 µM | [10] 19.5 µM | [20] 6.65 µM | [11] 55.2 µM | [12] 31.3 µM | [13] 19.1 µM | [14] 12.9 µM | [15] 30 µM

NC1=Nc2ccccc2Sc2cccc(F)c21
inactive: [2] > 100 µM | [3] 97.7 µM | [4] > 100 µM | [5] 99.5 µM | [16] 50.9 µM | [6] 24 µM | [7] > 100 µM | [8] 44 µM | [17] 46.1 µM | [9] 46.5 µM | [18] 60.3 µM | [19] 62.2 µM | [10] > 100 µM | [20] 95.3 µM | [11] > 100 µM | [12] 46.3 µM | [13] > 100 µM | [14] 48.6 µM | [15] > 100 µM

COc1ccc2c(c1)O[C@@H]1C(O)Oc3cc(OC)c(OC)cc3[C@]1(O)C2=O (stereo partly drawn)
inactive: [2] > 100 µM | [3] 79.3 µM | [4] > 100 µM | [5] 29.9 µM | [16] > 100 µM | [6] 32.1 µM | [7] > 100 µM | [8] > 100 µM | [17] 50.1 µM | [9] > 100 µM | [18] 78 µM | [19] 31.2 µM | [10] > 100 µM | [20] 12.6 µM | [11] 34.3 µM | [12] 29 µM | [13] > 100 µM | [14] 3.44 µM | [15] 94.6 µM

— ChEMBL document CHEMBL1201862, “PubChem BioAssay data set” (2004)
